The text below walks through data of patent US9718819B2 (Merck Sharp & Dohme Corp., priority 2012, dated 2017).

The structures appear in SMILES notation.

The assay has as its target HIV-1 RT wild-type enzyme (Human immunodeficiency virus type 1 group M subtype B (isolate HXB2) (HIV-1), UniProt P04585). Kind of assay: HIV-1 reverse transcriptase inhibitory activity (RT polymerase assay). It is filed as biochemical. The following applies: HIV-1 RT wild-type enzyme 83 pM; RNA-dependent DNA polymerase activity; read-out: IC50. In a few lines: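 Enzyme and compound were preincubated 30 min at room temperature, then RNA/DNA hybrid (16.6 nM final; HCV-derived RNA, biotinylated primer) plus 2 μM dNTPs and 66.6 nM Ru-dUTP added, 90 min at 37 °C. Avidin capture and ECL counting; percent inhibition relative to DMSO (0%) and 1 μM efavirenz (100%), four-parameter IC50 fit.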
As for `N#Cc1cc(Cl)cc(Oc2c(C(F)(F)F)ncn(Cc3cc(-c4ccc(F)c(F)c4F)c(=O)[nH]n3)c2=O)c1` [Example 62, 3-chloro-5-((6-oxo-1-((6-oxo-5-(2,3,4-trifluorophenyl)-1,6-dihydropyridazin-3-yl)methyl)-4-(trifluoromethyl)-1,6-dihydropyrimidin-5-yl)oxy)benzonitrile], the half-inhibitory concentration (IC50) (commonly the midpoint of a concentration-inhibition curve) was determined as 10 nM.

Take `COc1ccc(F)c(-c2cc(Cn3cnc(C(F)(F)F)c(Oc4cc(Cl)cc(C#N)c4)c3=O)n[nH]c2=O)c1` [Example 63, 3-chloro-5-((1-((5-(2-fluoro-5-methoxyphenyl)-6-oxo-1,6-dihydropyridazin-3-yl)methyl)-6-oxo-4-(trifluoromethyl)-1,6-dihydropyrimidin-5-yl)oxy)benzonitrile]: the 50% inhibitory concentration (IC50) worked out at 10 nM.

With `N#Cc1cc(Cl)cc(Oc2c(C(F)(F)F)ncn(Cc3cc(-c4ccc5c(c4)CCO5)c(=O)[nH]n3)c2=O)c1` [Example 64, 3-chloro-5-((1-((5-(2,3-dihydrobenzofuran-5-yl)-6-oxo-1,6-dihydropyridazin-3-yl)methyl)-6-oxo-4-(trifluoromethyl)-1,6-dihydropyrimidin-5-yl)oxy)benzonitrile], the IC50 is 3 nM.

On to `N#Cc1cc(Cl)cc(Oc2c(C(F)(F)F)ncn(Cc3cc(-c4ccn[nH]4)c(=O)[nH]n3)c2=O)c1` [Example 65, 3-chloro-5-((6-oxo-1-((6-oxo-5-(1H-pyrazol-5-yl)-1,6-dihydropyridazin-3-yl)methyl)-4-(trifluoromethyl)-1,6-dihydropyrimidin-5-yl)oxy)benzonitrile], for which the IC50 is 5 nM.

With `N#Cc1cc(Cl)cc(Oc2c(C(F)(F)F)ncn(Cc3cc(C4CC4)c(=O)[nH]n3)c2=O)c1` [Example 66, 3-chloro-5-((1-((5-cyclopropyl-6-oxo-1,6-dihydropyridazin-3-yl)methyl)-6-oxo-4-(trifluoromethyl)-1,6-dihydropyrimidin-5-yl)oxy)benzonitrile], the IC50 was found to be 7 nM.

Regarding `CS(=O)(=O)c1ccc(-c2cc(Cn3cnc(C(F)(F)F)c(Oc4cc(Cl)cc(C#N)c4)c3=O)n[nH]c2=O)cc1` [Example 67, 3-chloro-5-((1-((5-(4-(methylsulfonyl)phenyl)-6-oxo-1,6-dihydropyridazin-3-yl)methyl)-6-oxo-4-(trifluoromethyl)-1,6-dihydropyrimidin-5-yl)oxy)benzonitrile], the IC50 came to 12 nM.

`N#Cc1cc(Cl)cc(Oc2c(C(F)(F)F)ncn(Cc3cc(-c4ccc(C(O)C(F)F)cc4)c(=O)[nH]n3)c2=O)c1` (centres unmarked) [Example 69, 3-chloro-5-((1-((5-(4-(2,2-difluoro-1-hydroxyethyl)phenyl)-6-oxo-1,6-dihydropyridazin-3-yl)methyl)-6-oxo-4-(trifluoromethyl)-1,6-dihydropyrimidin-5-yl)oxy)benzonitrile]: the IC50 amounted to 10 nM.

On to `CS(=O)(=O)c1cccc(-c2cc(Cn3cnc(C(F)(F)F)c(Oc4cc(Cl)cc(C#N)c4)c3=O)n[nH]c2=O)c1` [Example 70, 3-chloro-5-((1-((5-(3-(methylsulfonyl)phenyl)-6-oxo-1,6-dihydropyridazin-3-yl)methyl)-6-oxo-4-(trifluoromethyl)-1,6-dihydropyrimidin-5-yl)oxy)benzonitrile], for which the IC50 was 15 nM.

`N#Cc1cc(Cl)cc(Oc2c(C(F)(F)F)ncn(Cc3cc(-c4cn[nH]c4)c(=O)[nH]n3)c2=O)c1` [Example 71, 3-chloro-5-((6-oxo-1-((6-oxo-5-(1H-pyrazol-4-yl)-1,6-dihydropyridazin-3-yl)methyl)-4-(trifluoromethyl)-1,6-dihydropyrimidin-5-yl)oxy)benzonitrile]: the IC50 is 5 nM.

With `Cn1cc(-c2cc(Cn3cnc(C(F)(F)F)c(Oc4cc(Cl)cc(C#N)c4)c3=O)n[nH]c2=O)cn1` [Example 72, 3-chloro-5-((1-((5-(1-methyl-1H-pyrazol-4-yl)-6-oxo-1,6-dihydropyridazin-3-yl)methyl)-6-oxo-4-(trifluoromethyl)-1,6-dihydropyrimidin-5-yl)oxy)benzonitrile], the IC50 worked out at 7 nM.

Regarding `N#Cc1cc(Cl)cc(Oc2c(C(F)(F)F)ncn(Cc3cc(-c4cccnc4)c(=O)[nH]n3)c2=O)c1` [Example 73, 3-chloro-5-((6-oxo-1-((6-oxo-5-(pyridin-3-yl)-1,6-dihydropyridazin-3-yl)methyl)-4-(trifluoromethyl)-1,6-dihydropyrimidin-5-yl)oxy)benzonitrile], the half-inhibitory concentration (IC50) is 11 nM.

As for `COc1ccc(-c2cc(Cn3cnc(C(F)(F)F)c(Oc4cc(Cl)cc(C#N)c4)c3=O)n[nH]c2=O)cn1` [Example 74], the half-maximal inhibitory concentration (IC50) amounted to 17 nM.

On to `N#Cc1ccc(-c2cc(Cn3cnc(C(F)(F)F)c(Oc4cc(Cl)cc(C#N)c4)c3=O)n[nH]c2=O)cc1` [Example 75, 3-chloro-5-((1-((5-(4-cyanophenyl)-6-oxo-1,6-dihydropyridazin-3-yl)methyl)-6-oxo-4-(trifluoromethyl)-1,6-dihydropyrimidin-5-yl)oxy)benzonitrile], for which the half-inhibitory concentration (IC50) is 20 nM.

As for `Cn1nccc1-c1cc(Cn2cnc(C(F)(F)F)c(Oc3cc(Cl)cc(C#N)c3)c2=O)n[nH]c1=O` [Example 76, 3-chloro-5-((1-((5-(1-methyl-1H-pyrazo1-5-yl)-6-oxo-1,6-dihydropyridazin-3-yl)methyl)-6-oxo-4-(trifluoromethyl)-1,6-dihydropyrimidin-5-yl)oxy)benzonitrile], the half-inhibitory concentration (IC50) was 99 nM.

As to `N#Cc1cc(Cl)cc(Oc2c(C(F)(F)F)ncn(Cc3cc(-c4ccc(F)nc4)c(=O)[nH]n3)c2=O)c1` [Example 78, 3-chloro-5-((1-((5-(6-fluoropyridin-3-yl)-6-oxo-1,6-dihydropyridazin-3-yl)methyl)-6-oxo-4-(trifluoromethyl)-1,6-dihydropyrimidin-5-yl)oxy)benzonitrile], the IC50 was found to be 6 nM.

As for `N#Cc1cc(Cl)cc(Oc2c(C(F)(F)F)ncn(Cc3cc(-c4ccncc4)c(=O)[nH]n3)c2=O)c1` [Example 81, 3-chloro-5-((6-oxo-1-((6-oxo-5-(pyridin-4-yl)-1,6-dihydropyridazin-3-yl)methyl)-4-(trifluoromethyl)-1,6-dihydropyrimidin-5-yl)oxy)benzonitrile], the half-maximal inhibitory concentration (IC50) was 9 nM.

With `N#Cc1cc(Cl)cc(Oc2c(C(F)(F)F)ncn(Cc3cc(-c4cncc(F)c4)c(=O)[nH]n3)c2=O)c1` [Example 82, 3-chloro-5-((1-((5-(5-fluoropyridin-3-yl)-6-oxo-1,6-dihydropyridazin-3-yl)methyl)-6-oxo-4-(trifluoromethyl)-1,6-dihydropyrimidin-5-yl)oxy)benzonitrile], the IC50 turned out to be 7 nM.

In the case of `Cc1ccc(-c2cc(Cn3cnc(C(F)(F)F)c(Oc4cc(Cl)cc(C#N)c4)c3=O)n[nH]c2=O)cn1` [Example 83, 3-chloro-5-((1-((5-(6-methylpyridin-3-yl)-6-oxo-1,6-dihydropyridazin-3-yl)methyl)-6-oxo-4-(trifluoromethyl)-1,6-dihydropyrimidin-5-yl)oxy)benzonitrile], the IC50 was found to be 14 nM.

For the compound `N#Cc1cc(Cl)cc(Oc2c(C(F)(F)F)ncn(Cc3cc(-c4cncc(C#N)c4)c(=O)[nH]n3)c2=O)c1` [Example 84, 5-(6-((5-(3-chloro-5-cyanophenoxy)-6-oxo-4-(trifluoromethyl)pyrimidin-1(6H)-yl)methyl)-3-oxo-2,3-dihydropyridazin-4-yl)nicotinonitrile], the half-inhibitory concentration (IC50) was determined as 27 nM.

Regarding `COc1cncc(-c2cc(Cn3cnc(C(F)(F)F)c(Oc4cc(Cl)cc(C#N)c4)c3=O)n[nH]c2=O)c1` [Example 85, 3-chloro-5-((1-((5-(5-methoxypyridin-3-yl)-6-oxo-1,6-dihydropyridazin-3-yl)methyl)-6-oxo-4-(trifluoromethyl)-1,6-dihydropyrimidin-5-yl)oxy)benzonitrile], the 50% inhibitory concentration (IC50) stood at 14 nM.

Consider `N#Cc1cc(Cl)cc(Oc2c(C(F)(F)F)ncn(Cc3cc(-c4ccc(Cl)nc4)c(=O)[nH]n3)c2=O)c1` [Example 86, 3-chloro-5-((1-((5-(6-chloropyridin-3-yl)-6-oxo-1,6-dihydropyridazin-3-yl)methyl)-6-oxo-4-(trifluoromethyl)-1,6-dihydropyrimidin-5-yl)oxy)benzonitrile], for which the IC50 is 6 nM.

With `N#Cc1cc(Cl)cc(Oc2c(C(F)(F)F)ncn(Cc3cc(-c4cccnc4F)c(=O)[nH]n3)c2=O)c1` [Example 87, 3-chloro-5-((1-((5-(2-fluoropyridin-3-yl)-6-oxo-1,6-dihydropyridazin-3-yl)methyl)-6-oxo-4-(trifluoromethyl)-1,6-dihydropyrimidin-5-yl)oxy)benzonitrile], the 50% inhibitory concentration (IC50) was determined as 18 nM.

`N#Cc1cc(Cl)cc(Oc2c(C(F)(F)F)ncn(Cc3cc(-c4cnc5ccccc5c4)c(=O)[nH]n3)c2=O)c1` [Example 88, 3-chloro-5-((6-oxo-1-((6-oxo-5-(quinolin-3-yl)-1,6-dihydropyridazin-3-yl)methyl)-4-(trifluoromethyl)-1,6-dihydropyrimidin-5-yl)oxy)benzonitrile]: the IC50 came out at 17 nM.

With `N#Cc1cc(Cl)cc(Oc2c(C(F)(F)F)ncn(Cc3cc(-c4ccc(C(N)C(F)(F)F)cc4)c(=O)[nH]n3)c2=O)c1` (centres unmarked) [Example 89, 3-((1-((5-(4-(1-amino-2,2,2-trifluoroethyl)phenyl)-6-oxo-1,6-dihydropyridazin-3-yl)methyl)-6-oxo-4-(trifluoromethyl)-1,6-dihydropyrimidin-5-yl)oxy)-5-chlorobenzonitrile], the IC50 worked out at 18 nM.

For `N#Cc1cc(Cl)cc(Oc2c(C(F)(F)F)ncn(Cc3cc(Br)c(=O)[nH]n3)c2=O)c1` [Example 90, 3-((1-((5-bromo-6-oxo-1,6-dihydropyridazin-3-yl)methyl)-6-oxo-4-(trifluoromethyl)-1,6-dihydropyrimidin-5-yl)oxy)-5-chlorobenzonitrile], the IC50 turned out to be 6 nM.

With `N#Cc1cc(Cl)cc(Oc2c(C(F)(F)F)ncn(Cc3cc(Cl)c(=O)[nH]n3)c2=O)c1` [Example 91, 3-chloro-5-((1-((5-chloro-6-oxo-1,6-dihydropyridazin-3-yl)methyl)-6-oxo-4-(trifluoromethyl)-1,6-dihydropyrimidin-5-yl)oxy)benzonitrile], the half-inhibitory concentration (IC50) is 6 nM.
